Where a name gives a salt, the structure may show the parent alone.
Experiments:
Test in all cases: Cell viability drug screen, 12-point dose-response AUC
Assay type in all cases: cell-based, human
[1] = test system: AGS; conditions: 72 hours; for area under the viability curve (AUC), normalized: AGS cells, 12-point dose-response
In short: (§1)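 Gastric cancer lines seeded 5×10^3 cells/well, dosed after 24 h with half-log 12-point compound dilutions (DMSO 0.5% control), then 72 h at 37 °C. Viability by luminescence, normalized to DMSO; AUC by trapezoidal method, averaged over repeats.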

[2] = test system: Hs746T; conditions: 72 hours; for area under the viability curve (AUC), normalized: Hs746T cells, 12-point dose-response
In short: (§2)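 Twelve half-log concentrations per compound were tested on gastric cancer cells with an EMT phenotype (5×10^3/well, dosed 24 h post-seeding). Viability after 72 h was quantified via luminescence relative to 0.5% DMSO, and repeats were averaged.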

[3] = test system: KATO3; conditions: KATO3 cells, 72 hours; for area under the viability curve (AUC), normalized: 12-point dose-response
In short: as §2

[4] = test system: MKN1; conditions: MKN1 cells, 72 hours; for area under the viability curve (AUC), normalized: 12-point dose-response
In short: as §2

[5] = test system: MKN28; conditions: MKN28 cells, 72 hours; for area under the viability curve (AUC), normalized: 12-point dose-response
In short: as §2

[6] = test system: MKN45; conditions: 72 hours; for area under the viability curve (AUC), normalized: MKN45 cells, 12-point dose-response
In short: as §1

[7] = test system: MKN74; conditions: MKN74 cells, 72 hours; for area under the viability curve (AUC), normalized: 12-point dose-response
In short: as §1

[8] = test system: NCC19; conditions: NCC19 cells, 72 hours; for area under the viability curve (AUC), normalized: 12-point dose-response
In short: as §2

[9] = test system: NCC20; conditions: NCC20 cells, 72 hours; for area under the viability curve (AUC), normalized: 12-point dose-response
In short: as §2

[10] = test system: NCC24; conditions: NCC24 cells, 72 hours; for area under the viability curve (AUC), normalized: 12-point dose-response
In short: as §2

[11] = test system: NCC59; conditions: NCC59 cells, 72 hours; for area under the viability curve (AUC), normalized: 12-point dose-response
In short: as §2

[12] = test system: NCI_N87; conditions: NCI_N87 cells, 72 hours; for area under the viability curve (AUC), normalized: 12-point dose-response
In short: as §2

[13] = test system: OCUM1; conditions: OCUM1 cells, 72 hours; for area under the viability curve (AUC), normalized: 12-point dose-response
In short: as §2

[14] = test system: SK4; conditions: 72 hours; for area under the viability curve (AUC), normalized: SK4 cells, 12-point dose-response
In short: as §2

[15] = test system: SNU16; conditions: SNU16 cells, 72 hours; for area under the viability curve (AUC), normalized: 12-point dose-response
In short: as §2

[16] = test system: SNU1750; conditions: 72 hours; for area under the viability curve (AUC), normalized: SNU1750 cells, 12-point dose-response
In short: as §2

[17] = test system: SNU1967; conditions: SNU1967 cells, 72 hours; for area under the viability curve (AUC), normalized: 12-point dose-response
In short: as §2

[18] = test system: SNU1; conditions: SNU1 cells, 72 hours; for area under the viability curve (AUC), normalized: 12-point dose-response
In short: as §2

[19] = test system: SNU216; conditions: 72 hours; for area under the viability curve (AUC), normalized: SNU216 cells, 12-point dose-response
In short: as §1

[20] = test system: SNU484; conditions: 72 hours; for area under the viability curve (AUC), normalized: SNU484 cells, 12-point dose-response
In short: as §2

[21] = test system: SNU601; conditions: SNU601 cells, 72 hours; for area under the viability curve (AUC), normalized: 12-point dose-response
In short: as §2

[22] = test system: SNU620; conditions: SNU620 cells, 72 hours; for area under the viability curve (AUC), normalized: 12-point dose-response
In short: as §2

[23] = test system: SNU638; conditions: SNU638 cells, 72 hours; for area under the viability curve (AUC), normalized: 12-point dose-response
In short: as §2

[24] = test system: SNU668; conditions: 72 hours; for area under the viability curve (AUC), normalized: SNU668 cells, 12-point dose-response
In short: as §2

[25] = test system: SNU719; conditions: SNU719 cells, 72 hours; for area under the viability curve (AUC), normalized: 12-point dose-response
In short: as §1

[26] = test system: YCC11; conditions: 72 hours; for area under the viability curve (AUC), normalized: YCC11 cells, 12-point dose-response
In short: as §2

[27] = test system: YCC2; conditions: YCC2 cells, 72 hours; for area under the viability curve (AUC), normalized: 12-point dose-response
In short: as §2

[28] = test system: YCC3; conditions: YCC3 cells, 72 hours; for area under the viability curve (AUC), normalized: 12-point dose-response
In short: as §2

[29] = test system: FU97; parameters: Average Area Under the Viability Curve (AUC), AUC norm value: scale not given here; conditions: FU97 cells, 72 hours; for area under the viability curve (AUC), normalized: 12-point dose-response
In short: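 Trapezoidal AUC of a 12-point, DMSO-normalized dose-response curve. Luminescent viability was measured after 72 h of exposure at 37° C to half-log serial dilutions (0.5% DMSO control), dosed 24 h after plating FU97 cells at 5×10^3 per well.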

## CC(C)C[C@H](NC(=O)CNC(=O)c1cc(Cl)ccc1Cl)B(O)O [MLN2238]
[1]
  area under the viability curve (AUC), normalized: −0.8012
[2]
  area under the viability curve (AUC), normalized: −1.189
[3]
  area under the viability curve (AUC), normalized: 0.7115
[4]
  area under the viability curve (AUC), normalized: 0.3958
[5]
  area under the viability curve (AUC), normalized: 0.5257
[6]
  area under the viability curve (AUC), normalized: 0.4006
[7]
  area under the viability curve (AUC), normalized: −0.2214
[8]
  area under the viability curve (AUC), normalized: −0.8166
[9]
  area under the viability curve (AUC), normalized: −1.247
[10]
  area under the viability curve (AUC), normalized: −1.21
[11]
  area under the viability curve (AUC), normalized: 0.318
[12]
  area under the viability curve (AUC), normalized: 1.708
[13]
  area under the viability curve (AUC), normalized: 2.118
[14]
  area under the viability curve (AUC), normalized: 0.5584
[15]
  area under the viability curve (AUC), normalized: 0.7701
[16]
  area under the viability curve (AUC), normalized: −1.896
[17]
  area under the viability curve (AUC), normalized: −1.676
[18]
  area under the viability curve (AUC), normalized: −0.5037
[19]
  area under the viability curve (AUC), normalized: 0.2331
[20]
  area under the viability curve (AUC), normalized: −0.4125
[21]
  area under the viability curve (AUC), normalized: −0.2758
[22]
  area under the viability curve (AUC), normalized: −0.9643
[23]
  area under the viability curve (AUC), normalized: −0.5736
[24]
  area under the viability curve (AUC), normalized: 1.1951
[25]
  area under the viability curve (AUC), normalized: 0.4168
[26]
  area under the viability curve (AUC), normalized: −1.695
[27]
  area under the viability curve (AUC), normalized: 0.04339
[28]
  area under the viability curve (AUC), normalized: 2.808
[29]
  area under the viability curve (AUC), normalized: 0

## CC(C)C[C@H](NC(=O)CNC(=O)c1cc(Cl)ccc1Cl)B1OC(=O)C(CC(=O)O)(CC(=O)O)O1 [MLN9708]
[1]; AGS cells (non-SEM subtype)
  Average Area Under the Viability Curve (AUC), AUC norm value: −0.6988
[2]; Hs746T cells (SEM subtype)
  Average Area Under the Viability Curve (AUC), AUC norm value: −1.547
[3]
  Average Area Under the Viability Curve (AUC), AUC norm value: 0.559
[4]
  Average Area Under the Viability Curve (AUC), AUC norm value: 0.06734
[5]
  Average Area Under the Viability Curve (AUC), AUC norm value: 0.1368
[6]; MKN45 cells (non-SEM subtype)
  Average Area Under the Viability Curve (AUC), AUC norm value: 0.2581
[7]
  Average Area Under the Viability Curve (AUC), AUC norm value: −0.4008
[8]
  Average Area Under the Viability Curve (AUC), AUC norm value: −0.7913
[9]
  Average Area Under the Viability Curve (AUC), AUC norm value: −1.527
[10]
  Average Area Under the Viability Curve (AUC), AUC norm value: −0.9085
[11]
  Average Area Under the Viability Curve (AUC), AUC norm value: −0.3472
[12]
  Average Area Under the Viability Curve (AUC), AUC norm value: 1.9321
[13]
  Average Area Under the Viability Curve (AUC), AUC norm value: 2.097
[14]; SK4 cells (SEM subtype)
  Average Area Under the Viability Curve (AUC), AUC norm value: 0.4078
[15]
  Average Area Under the Viability Curve (AUC), AUC norm value: −2.259
[16]; SNU1750 cells (SEM subtype)
  Average Area Under the Viability Curve (AUC), AUC norm value: −2.161
[17]
  Average Area Under the Viability Curve (AUC), AUC norm value: −1.556
[18]
  Average Area Under the Viability Curve (AUC), AUC norm value: 0.02493
[19]; SNU216 cells (non-SEM subtype)
  Average Area Under the Viability Curve (AUC), AUC norm value: 0.1416
[20]; SNU484 cells (SEM subtype)
  Average Area Under the Viability Curve (AUC), AUC norm value: −1.069
[21]
  Average Area Under the Viability Curve (AUC), AUC norm value: 0
[22]
  Average Area Under the Viability Curve (AUC), AUC norm value: −0.7036
[23]
  Average Area Under the Viability Curve (AUC), AUC norm value: 0.0059
[24]; SNU668 cells (SEM subtype)
  Average Area Under the Viability Curve (AUC), AUC norm value: 1.232
[25]
  Average Area Under the Viability Curve (AUC), AUC norm value: 1.304
[26]; YCC11 cells (SEM subtype)
  Average Area Under the Viability Curve (AUC), AUC norm value: −1.824
[27]
  Average Area Under the Viability Curve (AUC), AUC norm value: 0.3377
[28]
  Average Area Under the Viability Curve (AUC), AUC norm value: 2.717
[29]
  Average Area Under the Viability Curve (AUC), AUC norm value: −1.568

## O=C1c2c(O)ccc(O)c2C(=O)c2c(NCCNCCO)ccc(NCCNCCO)c21 [Mitoxantrone Hydrochloride]
[1]
  area under the viability curve (AUC), normalized: −1.671
[2]
  area under the viability curve (AUC), normalized: 0.5925
[3]
  area under the viability curve (AUC), normalized: 4.807
[4]
  area under the viability curve (AUC), normalized: −1.197
[5]
  area under the viability curve (AUC), normalized: 1.616
[6]
  area under the viability curve (AUC), normalized: 2.014
[7]
  area under the viability curve (AUC), normalized: −0.2914
[8]
  area under the viability curve (AUC), normalized: 2.884
[9]
  area under the viability curve (AUC), normalized: −0.7422
[10]
  area under the viability curve (AUC), normalized: −1.038
[11]
  area under the viability curve (AUC), normalized: 1.001
[12]
  area under the viability curve (AUC), normalized: 2.6755
[13]
  area under the viability curve (AUC), normalized: 0.8078
[14]
  area under the viability curve (AUC), normalized: −0.6127
[15]
  area under the viability curve (AUC), normalized: 1.6
[16]
  area under the viability curve (AUC), normalized: −0.3587
[17]
  area under the viability curve (AUC), normalized: −1.342
[18]
  area under the viability curve (AUC), normalized: 0
[19]
  area under the viability curve (AUC), normalized: 1.1656
[20]
  area under the viability curve (AUC), normalized: −1.158
[21]
  area under the viability curve (AUC), normalized: −0.5251
[22]
  area under the viability curve (AUC), normalized: −0.6012
[23]
  area under the viability curve (AUC), normalized: −1.06
[24]
  area under the viability curve (AUC), normalized: −0.6581
[25]
  area under the viability curve (AUC), normalized: 3.647
[26]
  area under the viability curve (AUC), normalized: −1.252
[27]
  area under the viability curve (AUC), normalized: 0.5126
[28]
  area under the viability curve (AUC), normalized: 2.27
[29]
  area under the viability curve (AUC), normalized: 0.4542

— patent US20250129430A1, “HIGH ATP-AFFINITY PROTEIN AS THERAPEUTIC TARGET FOR INTRACTABLE CANCER MOLECULAR SUBTYPES AND INHIBITOR THEREOF” (VeraVerse Co., Ltd., priority 2021, published 2025)
